# Measured values: ChEMBL document CHEMBL3045144, “Relationship between physicochemical properties and herbicidal activity of 1,2,5-oxadiazole N-oxide derivatives” (Molecules, 2005)
# Columns and labels:
# [1] = Retention factor, logKw of the compound in pure aqueous mobile phases by RP-HPLC method; assay type: physicochemical; details: buffer
# [2] = system: Triticum aestivum; experiment: Pre-emergence herbicidal activity against Triticum aestivum L. (wheat) assessed change in leaf length; assay type: functional; set-up: concentration or dose not given beside the values
# [3] = system: Triticum aestivum; experiment: Pre-emergence herbicidal activity against Triticum aestivum L. (wheat) assessed change in aerial weight; assay type: functional; set-up: concentration or dose not given beside the values
# [4] = system: Triticum aestivum; experiment: Pre-emergence herbicidal activity against Triticum aestivum L. (wheat) assessed change in radicular weight; assay type: functional; set-up: concentration or dose not given beside the values
SMILES,logKw [1],Activity [2],Activity [3],Activity [4]
COCCNC(=O)N/N=C\c1ccc2c(c1)no[n+]2[O-],2.31,-1.1%,,
O=C(Nc1ccc(Cl)cc1)c1ccc2c(c1)no[n+]2[O-],,-1.43%,-50%,-73%
Cc1ccc2c(c1)no[n+]2[O-],2.18,-2%,-58%,-58%
NC(=S)N/N=C/c1c(-c2ccccc2)no[n+]1[O-],3.24,-1.03%,-30%,8%
COC(=O)N/N=C/c1no[n+]([O-])c1C,1.47,-2.08%,-50%,-50%
COC(=O)N/N=C\c1ccc2c(c1)no[n+]2[O-],2.02,-1.17%,-6%,13%
CCCCNC(=O)c1ccc2c(c1)no[n+]2[O-],2.74,-1.54%,-71%,-66%
[O-][n+]1onc(-c2ccccc2)c1CCl,4.24,-0.99%,-4%,-7%
Cc1c(/C=N/NC(=O)NC2CCCCC2)no[n+]1[O-],4.39,-1.59%,-50%,-85%
O=Cc1c(-c2ccccc2)no[n+]1[O-],,-1.2%,-4%,18%
Cc1c(C=O)no[n+]1[O-],0.22,-1.62%,-5%,-5%
COC(=O)N/N=C/c1c(-c2ccccc2)no[n+]1[O-],3.34,-1.19%,-22%,16%
COC(=O)N/N=C/c1ccc2nonc2c1,2.21,,35%,20%
[O-][n+]1onc(-c2ccccc2)c1CN1CCN(c2ncccn2)CC1,,-1.22%,0%,0%
COCCNC(=O)c1ccc2c(c1)no[n+]2[O-],1.46,-1.54%,-23%,-2%
O=C(O)c1ccc2c(c1)no[n+]2[O-],,,-16%,-9%
O=Cc1ccc2c(c1)no[n+]2[O-],2.4,-0.93%,-30%,-5%
O=C(c1ccc2c(c1)no[n+]2[O-])N1CCOCC1,1.27,-2.06%,-55%,-52%
Cc1c(/C=N/NC(N)=S)no[n+]1[O-],1.18,,,-95%
